Patent US8324457B2, “Soybean event 3560.4.3.5 and compositions and methods for the identification and/or detection thereof” (Pioneer Hi-Bred International, Inc., priority 2006, dated 2012)
Read-outs that look alike come from different tables or passages of the source.

Experiments:
[1] = test system: transgenic event 3560.4.3.5 soybean; assay: Greenhouse herbicide tolerance of T0 and T1 plants, visual rating 10 days after spray; assay type: in vivo, Glycine max
From the text: Selected events were advanced at the T1 generation for herbicide tolerance confirmation in greenhouses. Plants were sprayed at the V3 growth stage with either 1.68 kg ae ha^−1 glyphosate, 60 g ai ha^−1 thifensulfuron methyl(methyl 3-[[[[(4-methoxy-6-methyl-1,3,5-triazin-2-yl)amino]carbonyl]amino]sulfonyl]-2-thiophenecarboxylate), or a sequential […] […] […] Since the T1 events were segregating, only the non-susceptible plants were scored, and an average rating of tolerant plants within each event was calculated.
(§1) T0 3560.4.3.5 soybean were evaluated for glyphosate tolerance.
The 3560.4.3.5 event was advanced to the T1 generation in a greenhouse to confirm herbicide tolerance. The 3560.4.3.5 event had tolerance after application of 1.68 kg ae ha^−1 glyphosate, after application of 60.0 g ai ha^−1 thifensulfuron methyl, and after a sequential application of 70 g ai ha^−1 thifensulfuronmethyl at V3, […]

[2] = test system: untransformed parental line; assay: Greenhouse glyphosate spray of the control line, visual rating; assay type: in vivo, Glycine max; conditions: either glyphosate application rate of the T0 test; 1 to 9 scale, 1 = dead plant
Procedure: Plants were rated using a 1 to 9 scale ten days after treatment (DAT), where 1=dead plant to 9=no observed spray response.
as §1

3560.4.3.5 soybean [3] = assay: Field glyphosate tolerance trials, T3 and T4 plants, visual rating; assay type: in vivo, Glycine max
Procedure: (§2) The 3560.4.3.5 soybean event was evaluatead for glyphosate tolerance. […] Plots were evaluated for crop response at 7 and 14 days after treatment (DAT), and rated using a 1-9 score. Crop response data were analyzed using the general linear model (GLM) and mixed model analysis of variance (ANOVA) procedures of SAS. (The SAS System is a registered trademark of SAS Institute, Inc., Cary, N.C., USA)
Selected T4 lines were tested for glyphosate tolerance. This experiment was a RCB design in a split plot arrangement with two replications of individual 1.2 m rows (76.2 cm row spacing). At the V3 growth stage, 6.72 kg ae ha^−1 glyphosate was applied to one block, while another was unsprayed for use as a control. The third block received a sequential application of 6.72 kg ae ha^−1 glyphosate at V3 followed by 6.72 kg ae ha^−1 glyphosate at R1. Plots were evaluated for crop response at 7 DAT and 14 DAT, and assigned a visual response score from 0% to 100% response, where 0%=no response observed to 100%=plot completely dead.
(§3) The T3 plants from the 3560.4.3.5 plants were sprayed in a glyphosate herbicide tolerance field trial. […] The untransformed control line was susceptible to any glyphosate application and was consistently rated as a 1. 3560.4.3.5 soybean T4 plants were advanced for additional glyphosate tolerance testing.

[4] = test system: untransformed control line; assay: Field glyphosate tolerance trial, control line; assay type: in vivo, Glycine max; conditions: any glyphosate application (3.36, 6.72 or 13.44 kg ae ha-1), 1 to 9 scale
Procedure: as §2, §3

3560.4.3.5 soybean [5] = assay: Tolerance to glyphosate tank mixes with other pesticides at V2 or R2, crop response rating; conditions: glyphosate 3.36 kg ae ha-1, chlorpyrifos 560.4, bentazon 1120.9, imazethapyr 141.3, fomesafen 263.4, tribenuron-methyl 17.5, thifensulfuron-methyl 17.5 g ai ha-1
Procedure: The first experiments were grown in an RCB design of three replications of paired 3.7 m rows (76.2 cm row spacing), blocked by replication with randomized spray treatments within each replication. […] Visual response ratings (0% to 100%) were assigned to each plot at 7 DAT, 14 DAT, and 28 DAT. Crop response data were analyzed using the GLM and mixed model ANOVA procedures of SAS.

3560.4.3.5 soybean [6] = assay type: in vivo, Glycine max; conditions: glyphosate 1.68 kg ae ha^−1, ALS inhibitors 5.8 + 4.4 g ai ha^−1
Procedure: The second set of tolerance experiments were designed to measure yield potential of 3560.4.3.5 soybean after application of common field use rates of glyphosate and/or ALS inhibitor herbicides. […] One experiment was grown at field A and two experiments were grown at field B and C (which were separated by planting date and physical distance of field locations.) In addition, the two fields had different environmental influence; one field experienced drought stress through the spring and early summer, the other was well irrigated throughout the growing season. Treatments were randomized within each of the replications and sprayed at the VC, V2, R2, or R5 growth stages. Treatments consisted of 1.68 kg ai ha^−1 glyphosate, 5.8 g ai ha^−1 chlorimuron ethyl+4.4 g ai ha^−1 thifensulfuron methyl, and 1.68 kg ai ha^−1 glyphosate+5.8 g ai ha^−1 chlorimuron ethyl+4.4 g ai ha^−1 thifensulfuron methyl. […] Plots were harvested and yield was calculated for each plot.
The second set of experiments conducted with event 3560.4.3.5 were designed to measure yield potential after application of different herbicides at field use rates that would be commonly utilized for soybean production. Across the glyphosate, ALS inhibitor, and glyphosate plus ALS inhibitor treatments there was minimal (10% or less) to essentially no response at 7, 14, and 28 DAT (Table 20). When yield data was collected, there were no significant yield differences detected for any of the herbicide treatments applied at different the growth stages (Table 20). In addition, the replications that received herbicide treatments were not statistically different from the unsprayed control replications for yield (Table 20). Based upon multiple year herbicide tolerance trials, it can be concluded that event 3560.4.3.5 had excellent tolerance to field use rates of glyphosate, ALS inhibitor, and glyphosate plus ALS inhibitor herbicides. In addition, yield potential was not affected when event 3560.4.3.5 was sprayed with glyphosate, ALS inhibitor, and glyphosate plus ALS inhibitor chemistries at different vegetative and reproductive growth stages.

How did the “average visual response rating” value ([1]; T0 plants, glyphosate 1.68 kg ae ha-1 + NIS + AMS, 10 days after application, greenhouse, scale 0 = dead plant to 9 = no response detected) turn out when `O=C(O)CNCP(=O)(O)O` [Glyphosate] was run?
The value was 7.0.

And the “average visual response rating” value ([1]; T0 plants, glyphosate 3.36 kg ae ha-1 + NIS + AMS, 10 days after application, greenhouse, scale 0 = dead plant to 9 = no response detected)?
The value was 6.5.

And the “average visual response rating, second score of sequential application” value ([1]; T1 tolerant plants, 70 g ai ha-1 thifensulfuron methyl at V3 followed by glyphosate 1.68 kg ae ha-1 at V6, 10 days after the V6 glyphosate application, scale to 9 = no response)?
Its value is 8.0.

What about the “average visual response rating” value ([1]; T1 tolerant plants, glyphosate 1.68 kg ae ha-1 + NIS + AMS at V3, 10 days after application, scale to 9 = no response) of the same compound?
Its value is 7.0.

And the visual rating [2]?
The visual rating was 1.

What about the LSMean visual rating (3560.4.3.5 soybean [3]; T3 plants, glyphosate 3.36 kg ae ha-1, 7 DAT, 1 = completely dead plot to 9 = no response) of the same compound?
The LSMean visual rating was 8.0.

What about the LSMean visual rating (3560.4.3.5 soybean [3]; T3 plants, glyphosate 6.72 kg ae ha-1, 7 DAT, 1 = completely dead plot to 9 = no response) of the same compound?
The LSMean visual rating was 6.7.

What about the LSMean visual rating (3560.4.3.5 soybean [3]; T3 plants, glyphosate 13.44 kg ae ha-1, 7 DAT, 1 = completely dead plot to 9 = no response) of the same compound?
Its LSMean visual rating is 5.7.

What about the LSMean visual rating (3560.4.3.5 soybean [3]; T4 plants, glyphosate 6.72 kg ae ha-1 at V3, 7 DAT, 1 to 9 scale) of the same compound?
Its LSMean visual rating is 6.8.

What about the LSMean visual rating (3560.4.3.5 soybean [3]; T4 plants, glyphosate 6.72 kg ae ha-1 at V3, 14 DAT, 1 to 9 scale) of the same compound?
Its LSMean visual rating is 7.8.

What about the LSMean visual rating (3560.4.3.5 soybean [3]; T4 plants, sequential glyphosate 6.72 kg ae ha-1 at V3 then 6.72 at R1, 7 DAT after the R1 application, 1 to 9 scale) of the same compound?
Its LSMean visual rating is 7.8.

What about the LSMean visual rating (3560.4.3.5 soybean [3]; T4 plants, sequential glyphosate 6.72 kg ae ha-1 at V3 then 6.72 at R1, 14 DAT after the R1 application, 1 to 9 scale) of the same compound?
The LSMean visual rating was 7.7.

What about the visual rating [4] of the same compound?
Its visual rating is 1.

What about the “LSMean crop response rating, 7 DAT Average” value (3560.4.3.5 soybean [5]; applied at R2) of the same compound?
The value was 1.7%.

What about the “LSMean crop response rating, 14 DAT Average” value (3560.4.3.5 soybean [5]; applied at R2) of the same compound?
Its value is 0.6%.

And the “LSMean crop response rating, 28 DAT Average” value (3560.4.3.5 soybean [5]; applied at R2)?
The value was 0.0%.

What about the “LSMean crop response rating, 14 DAT Average” value (3560.4.3.5 soybean [5]; applied at V2) of the same compound?
The value was 3.3%.

What about the “LSMean crop response rating, 28 DAT Average” value (3560.4.3.5 soybean [5]; applied at V2) of the same compound?
The value was 0.6%.

And the “LSMean crop response rating, 7 DAT Average” value (3560.4.3.5 soybean [5]; applied at V2, + NIS + AMS, 0% = no response, 100% = plot completely dead)?
Its value is 3.9%.

What about the “crop response rating 7 DAT (LSMean)” value (3560.4.3.5 soybean [6]; Application Stage R2) of the same compound?
The value was 2.0%.

What about the “crop response rating 14 DAT (LSMean)” value (3560.4.3.5 soybean [6]; Application Stage R2) of the same compound?
Its value is 0.6%.

What about the “crop response rating 28 DAT (LSMean)” value (3560.4.3.5 soybean [6]; Application Stage R2) of the same compound?
Its value is 0.0%.

What about the “crop response rating 7 DAT (LSMean)” value (3560.4.3.5 soybean [6]; Application Stage R5) of the same compound?
Its value is 0.3%.

And the “crop response rating 14 DAT (LSMean)” value (3560.4.3.5 soybean [6]; Application Stage R5)?
Its value is 0.3%.

What about the “crop response rating 28 DAT (LSMean)” value (3560.4.3.5 soybean [6]; Application Stage R5) of the same compound?
The value was 0.0%.

What about the “crop response rating 7 DAT (LSMean)” value (3560.4.3.5 soybean [6]; Application Stage V2) of the same compound?
The value was 5.3%.

And the “crop response rating 14 DAT (LSMean)” value (3560.4.3.5 soybean [6]; Application Stage V2)?
Its value is 2.8%.

What about the “crop response rating 28 DAT (LSMean)” value (3560.4.3.5 soybean [6]; Application Stage V2) of the same compound?
The value was 0.6%.

What about the “crop response rating 7 DAT (LSMean)” value (3560.4.3.5 soybean [6]; Application Stage VC) of the same compound?
Its value is 1.6%.

What about the “crop response rating 14 DAT (LSMean)” value (3560.4.3.5 soybean [6]; Application Stage VC) of the same compound?
The value was 0.8%.

And the “crop response rating 28 DAT (LSMean)” value (3560.4.3.5 soybean [6]; Application Stage VC)?
Its value is 0.6%.
